{"source": "patent US7439350B2", "about": "“Nucleotide analogs” (Gilead Sciences, Inc., priority 1993, dated 2008)", "key": {"[1]": {"assay": "Incubation in rat intestinal homogenate", "format": "in vitro ADME", "settings": "two phosphorus isomers separated by HPLC (one isomer / the other isomer)", "text": "(§1) The cHFMPC pivaloyloxymethyl ester synthesis yields a scalemic mixture at the phosphorus atom. The mixture was separated by HIPLC into the two isomers which were then exposed to an rat intestinal homogenate or to a rat intestinal wash."}, "[2]": {"assay": "Incubation in rat intestinal wash", "format": "in vitro ADME", "settings": "both phosphorus isomers", "text": "as §1"}, "[3]": {"test_system": "herpes simplex virus, type-1 and 2 (HSV-1 and -2)", "settings": "cited from earlier work"}, "herpes viruses": {"test_system": "herpes viruses", "settings": "in vitro; cited from earlier work"}, "HSV 1": {"test_system": "HSV 1", "settings": "in vivo, HSV 1 infection in mice; cited from earlier work"}, "[4]": {"test_system": "intraperitoneal P388 leukemia", "settings": "murine tumor model; cited from earlier work"}, "B16 melanoma": {"test_system": "B16 melanoma", "settings": "murine tumor model; cited from earlier work"}, "[5]": {"test_system": "varicella zoster virus (VZV)", "settings": "cited from earlier work"}, "adenovirus": {"test_system": "adenovirus", "settings": "cited from earlier work"}, "vaccinia virus": {"test_system": "vaccinia virus", "settings": "cited from earlier work"}, "[6]": {"test_system": "human immunodeficiency virus (HIV)", "settings": "cited from earlier work"}, "KOS strain of HSV-1": {"test_system": "KOS strain of HSV-1", "assay": "Antiviral activity against KOS strain of HSV-1 in VERO cells", "format": "cell-based", "settings": "KOS strain of HSV-1, VERO cells; concentration that inhibits virus-mediated cell killing by 50%"}, "HSV-2 (strain 414-92)": {"test_system": "HSV-2 (strain 414-92)", "assay": "Antiviral activity against HSV-2 (strain 414-92) in MA 104 cells, crystal violet readout", "format": "cell-based", "settings": "HSV-2 strain 414-92, MA 104 cells, three days; concentration that inhibits virus-mediated cell killing by 50%", "description": "Compounds were individually tested for activity against HSV-1 and/or HSV-2. HSV-2 (strain 414-92) was tested using MA 104 cells in the following assay protocol. 96-Well plates were seeded with 1×10^4 MA 104 cells per well using 200 μL minimal essential medium (MEM) containing 10% calf serum per well, and incubated overnight at 37° C. The compounds were dissolved in MEM Earle's Salts without serum. The medium was removed by-aspiration and 100 μL MEM Earle's Salts without serum was added to the wells. Serial 3-fold dilutions of the compounds were prepared by serial transfer of 50 μL of medium from wells containing compound to wells lacking compound. The plates were incubated 15 minutes at 37° C. followed by addition of 100 PFU/well of virus in MEM Earle's Salts with 2% fetal bovine serum. The plates were then incubated at 37° C. for three days until approximately 90% of the cells in virus infected control wells containing no compound were killed. Following incubation, medium was aspirated and the wells were washed with sterile PBS. 100 μL 0.5% crystal violet in 20% methanol was then added to the wells for 5 minutes, aspirated and the wells were washed two or three times with distilled water. 200 μL of 0.01 N HCl was added to the wells and the absorbance of each well at 595 nm was determined. The results, shown in Table 6, were expressed as the IC50, the concentration (μM) that inhibits cell killing mediated by HSV-2 by 50%. […] The toxicity of the compounds were expressed as the CC50, the concentration that kills 50% of uninfected cells."}, "HSV II": {"test_system": "HSV II", "assay": "Inhibition of cytopathic effects by HSV II in MA 104 cells, XTT readout", "format": "cell-based", "settings": "CPE determined with XTT"}, "MA 104 cells": {"test_system": "MA 104 cells", "assay": "CC50 in the HSV II / MA 104 XTT assay", "format": "cell-based"}, "[7]": {"test_system": "human cytomegalovirus (HCMV)", "settings": "cited from earlier work"}, "[8]": {"test_system": "Rauscher murine leukemia virus (R-MuLV)", "settings": "in vitro; cited from earlier work"}, "R-MuLV": {"test_system": "R-MuLV", "settings": "treatment of R-MuLV in mice; cited from earlier work"}, "[9]": {"test_system": "murine cytomegalovirus (MCMV)", "settings": "cited from earlier work"}, "HCMV": {"test_system": "HCMV", "assay": "Activity against HCMV in tissue culture (NHDF cell line)", "format": "cell-based", "text": "The title compound was synthesized using N^4-benzoyl HPMPC diethyl ester tritylated at the hydroxyl group as a starting material. The starting material was detritylated using acetic acid and then converted to N^4-benzoyl HPMPC using TMSBr. The resulting compound was converted to N^4-benzoyl cHPMPC using DCC and morpholine in pyridine."}, "[10]": {"assay": "Oral bioavailability in monkeys"}, "[11]": {"test_system": "uninfected cells (MA 104 cells)", "assay": "Toxicity of the compounds to uninfected cells (CC50)", "format": "cell-based", "settings": "concentration that kills 50% of uninfected cells", "description": "Compounds were individually tested for activity against HSV-1 and/or HSV-2. HSV-2 (strain 414-92) was tested using MA 104 cells in the following assay protocol. 96-Well plates were seeded with 1×10^4 MA 104 cells per well using 200 μL minimal essential medium (MEM) containing 10% calf serum per well, and incubated overnight at 37° C. The compounds were dissolved in MEM Earle's Salts without serum. The medium was removed by-aspiration and 100 μL MEM Earle's Salts without serum was added to the wells. Serial 3-fold dilutions of the compounds were prepared by serial transfer of 50 μL of medium from wells containing compound to wells lacking compound. The plates were incubated 15 minutes at 37° C. followed by addition of 100 PFU/well of virus in MEM Earle's Salts with 2% fetal bovine serum. The plates were then incubated at 37° C. for three days until approximately 90% of the cells in virus infected control wells containing no compound were killed. Following incubation, medium was aspirated and the wells were washed with sterile PBS. 100 μL 0.5% crystal violet in 20% methanol was then added to the wells for 5 minutes, aspirated and the wells were washed two or three times with distilled water. 200 μL of 0.01 N HCl was added to the wells and the absorbance of each well at 595 nm was determined. […]"}, "[12]": {"test_system": "broad-spectrum of DNA viruses", "settings": "HSV-1 and 2, VZV, TK- HSV, HCMV, SeHV, SHV-1, BHV-1, EHV-1, ASF virus, vaccinia virus, adenoviruses, MSV; cited from earlier work"}, "[13]": {"test_system": "herpes simplex virus type 1", "settings": "mice and rabbits in vivo, including herpetic keratitis caused by a TK- mutant; cited from earlier work"}}, "note": "Entries after “also recorded” stand apart in the source; their conditions may differ. Like-named read-outs stand apart in the source and are kept apart here.", "data": [{"smiles": "CC(C)(C)C(=O)OCOP1(=O)CO[C@@H](Cn2ccc(N)nc2=O)CO1", "note": "(stereo partly drawn) [cHFMPC pivaloyloxymethyl ester]", "values": [{"measurement": "metabolic fate after incubation in intestinal homogenate", "setting": "[1]", "value": "converted to cHPMPC; also recorded: converted to HPMPC pivaloyloxymethyl monoester"}, {"measurement": "metabolic fate after incubation in intestinal wash", "setting": "[2]", "value": "converted to HPMPC pivaloyloxymethyl monoester"}]}, {"smiles": "Nc1nc2c(ncn2CCOCP(=O)(O)O)c(=O)[nH]1", "note": "[PMEG]", "values": [{"measurement": "activity against HSV-1 and -2", "setting": "[3]", "value": "active"}, {"measurement": "activity against herpes viruses", "setting": "herpes viruses", "value": "active"}, {"measurement": "potency relative to acyclovir", "setting": "HSV 1", "value": "> 50", "unit": "fold"}, {"measurement": "antitumor activity against P388 leukemia", "setting": "[4]", "value": "active"}, {"measurement": "antitumor activity against B16 melanoma", "setting": "B16 melanoma", "value": "active"}]}, {"smiles": "Nc1ncnc2c1ncn2C[C@H]1COP(=O)(O)CO1", "note": "[(S)-cyclic HPMPA]", "values": [{"measurement": "activity against HSV-1 and -2", "setting": "[3]", "value": "active"}, {"measurement": "activity against VZV", "setting": "[5]", "value": "active"}, {"measurement": "activity against adenovirus", "setting": "adenovirus", "value": "active"}, {"measurement": "activity against vaccinia virus", "setting": "vaccinia virus", "value": "active"}]}, {"smiles": "Nc1ncc2ncn(CCOCP(=O)(O)O)c2n1", "note": "[PMEMAP]", "values": [{"measurement": "activity against HIV", "setting": "[6]", "value": "active"}]}, {"smiles": "Nc1ncnc2c1ncn2CCOCP(=O)(O)O", "note": "[PMEA, 9-(2-phosphonylmethoxyethyl)adenine]", "values": [{"measurement": "EC50", "setting": "KOS strain of HSV-1", "value": 138, "unit": "µM"}, {"measurement": "IC50", "setting": "HSV-2 (strain 414-92)", "value": 21, "unit": "µM"}, {"measurement": "IC50", "setting": "HSV II", "value": 19.3, "unit": "µM"}, {"measurement": "CC50", "setting": "MA 104 cells; MA 104 cells, XTT assay of Example 4, read-out: CC50", "value": 2000, "unit": "µM"}, {"measurement": "activity against HSV-1 and -2", "setting": "[3]", "value": "active"}, {"measurement": "activity against HCMV", "setting": "[7]", "value": "activity"}, {"measurement": "activity against HIV", "setting": "[6]", "value": "active"}, {"measurement": "activity against R-MuLV", "setting": "[8]", "value": "active"}, {"measurement": "potency in vivo compared with AZT", "setting": "R-MuLV", "value": "more potent"}, {"measurement": "antiviral effect in vivo against MCMV", "setting": "[9]", "value": "significant antiviral effect"}, {"measurement": "antitumor activity against P388 leukemia", "setting": "[4]", "value": "active"}]}, {"smiles": "O=C(Nc1ccn(C[C@H]2COP(=O)(O)CO2)c(=O)n1)c1ccccc1", "note": "[N^4-benzoyl cHPMPC]", "values": [{"measurement": "IC50", "setting": "HCMV", "value": 22, "unit": "µM"}]}, {"smiles": "CC(C)(C)C(=O)OCOP(=O)(COCCn1cnc2c(N)ncnc21)OCOC(=O)C(C)(C)C", "note": "[bis(POM)PMEA, bis(pivaloyloxymethyl)-9-(2-phosphonylmethoxyethyl)adenine]", "values": [{"measurement": "IC50", "setting": "HSV II", "value": 0.5, "unit": "µM"}, {"measurement": "CC50", "setting": "MA 104 cells", "value": "> 10", "unit": "µM"}, {"measurement": "oral bioavailability", "setting": "[10]", "value": "about 25%"}]}, {"smiles": "Nc1nc(N)c2ncn(C[C@@H](CO)OCP(=O)(O)O)c2n1", "note": "[(S)-HPMPDAP]", "values": [{"measurement": "activity against HSV-1 and -2", "setting": "[3]", "value": "active"}]}, {"smiles": "CC(NP(=O)(COCCn1cnc2c(N)ncnc21)NC(C)C(=O)OCc1ccccc1)C(=O)OCc1ccccc1", "note": "(stereo not drawn) [Ex 1, bis(alanyl benzyl ester)PMEA]", "values": [{"measurement": "IC50", "setting": "HSV-2 (strain 414-92)", "value": 20, "unit": "µM"}, {"measurement": "CC50", "setting": "[11]", "value": "> 100", "unit": "µM"}]}, {"smiles": "Nc1nc2c(ncn2C[C@@H](CO)OCP(=O)(O)O)c(=O)[nH]1", "note": "[(S)-HFMPG]", "values": [{"measurement": "activity against HSV-1 and -2", "setting": "[3]", "value": "active"}]}, {"smiles": "Nc1ccn(CC(CO)OCP(=O)(O)O)c(=O)n1", "note": "(stereo not drawn) [HPMPC, 1-(2-phosphonomethoxy-3-hydroxypropyl)-cytosine]", "values": [{"measurement": "IC50", "setting": "HCMV; Human betaherpesvirus 5", "value": 0.4, "unit": "µM"}, {"measurement": "activity against HSV-1 and -2", "setting": "[3]", "value": "active"}, {"measurement": "activity against HCMV", "setting": "[7]", "value": "active"}]}, {"smiles": "Nc1ncnc2c1ncn2CCOCP(=O)(NCC(=O)OCc1ccccc1)NCC(=O)OCc1ccccc1", "note": "[Ex 4, bis(glycyl benzyl ester)PMEA]", "values": [{"measurement": "IC50", "setting": "HSV-2 (strain 414-92)", "value": 60, "unit": "µM"}, {"measurement": "CC50", "setting": "[11]", "value": "> 100", "unit": "µM"}]}, {"smiles": "Nc1ncnc2c1ncn2C[C@@H](CO)OCP(=O)(O)O", "note": "[(S)-HPMPA]", "values": [{"measurement": "activity against HSV-1 and -2", "setting": "[3]", "value": "active"}, {"measurement": "activity against VZV", "setting": "[5]", "value": "active"}, {"measurement": "activity against adenovirus", "setting": "adenovirus", "value": "active"}, {"measurement": "activity against vaccinia virus", "setting": "vaccinia virus", "value": "active"}, {"measurement": "activity against a broad-spectrum of DNA viruses", "setting": "[12]", "value": "potent and selective activity"}, {"measurement": "efficacy against local and systemic HSV-1 infections", "setting": "[13]", "value": "effective"}, {"measurement": "antitumor activity against P388 leukemia", "setting": "[4]", "value": "active"}]}, {"smiles": "Nc1nc(N)c2ncn(CCOCP(=O)(O)O)c2n1", "note": "[PMEDAP]", "values": [{"measurement": "activity against HSV-1 and -2", "setting": "[3]", "value": "active"}, {"measurement": "activity against HIV", "setting": "[6]", "value": "active"}]}]}
